Results taken from patent US12421254B2, “KRAS modulators and uses thereof” (Quanta Therapeutics, Inc., priority 2023, dated 2025).

Key:
[1] = system: phospho-ERK in GP2D (KRAS-G12D) cells; assay: pERK In Cell Western (ICW) assay (Method B), GP2D; type: cell-based; settings: GP2d, 3 h, Table 4
Procedure: (§1) pERK ICW is a high throughput screening assay to evaluate the cellular potency of mutant KRAS small molecule inhibitors. KRAS mutant cell lines AGS, GP2D (KRAS-G12D) as well as SW620 (KRAS-G12V) were purchased from ATCC and maintained respectively in RPMI/DMEM/RPMI medium supplemented with 10% fetal bovine serum.
(§2) Cells grown in exponential phase were trypsinized, resuspended in fresh media, and viable cells were counted using a cell counter with Trypan Blue (BioRad TC20). Cells were seeded into 384-well plate (Greiner 781091) at density of 5,000 cells/well for AGS and 10,000 cells/well for GP2D/SW620 and allowed to grow overnight in a 37° C. CO2 incubator. The next day, compounds were dispensed into wells with a ½ log, 9-point serial dilution using a Tecan D300e dispenser and incubated for 3 hours in a 37° C. CO2 incubator. Cells were then fixed with paraformaldehyde (Electron Microscopy Sciences, 15710, 4% final concentration) for 30 min, permeabilized with wash buffer (1×PBS+0.1% Triton X-100) for 30 min and blocked with Odyssey blocking buffer (Li—COR 927-70001) for 1 hour, all at room temperature (RT). Phospho-ERK antibody (CST 4370L) was diluted 1:500 in Odyssey T20 (PBS) antibody diluent (Li—COR 927-75001) and incubated with cells overnight at 4° C. The next day, plates were washed 5× with wash buffer, incubated with IRDye 800 CW, Goat anti-Rabbit secondary antibody (Li—COR 926-32211, 1:800) and DRAQ5 (CST 4084L, 1:5,000) diluted in Odyssey T20 (PBS) antibody diluent for 1 hour, washed 5×, and imaged on an Odyssey CLx imaging system.
(§3) For data analysis, signal intensities from 800 (phosphor-ERK) and 700 (DRAQ5) channels were extracted, and phospho-ERK signals were normalized to DRAQ5 signals for each well and percent of blank control values were computed. Data were then imported into Graphpad Prism to compute half-maximal inhibitory concentrations (IC50) using a 4-parameter variable slope model. Z-factor for each plate was computed from signals derived from wells treated with either DMSO or 5 μM of control compound. AGS pERK ICW (Method B) IC50 (uM) values of selected compounds are depicted in Table 2 with compounds having a value ≥0.001 uM to 0.01 uM as ++++; ≥0.01 uM to 0.1 uM as +++; ≥0.1 uM to 1 uM as ++; ≥1 uM to 10 uM as + and ≥10 uM as NA.

[2] = system: phospho-ERK in SW620 (KRAS-G12V) cells; assay: pERK In Cell Western (ICW) assay (Method B), SW620; type: cell-based; settings: Homo sapiens, SW-620, 3 h, Table 4
Procedure: as §1, §2, §3

[3] = target: GST-tagged KRAS-G12V (2-169) (Homo sapiens, UniProt P01116, G12V); assay: Nucleotide exchange assay (NEA), SOS-mediated, HTRF, KRAS G12V; type: biochemical; settings: Table 4; IC50 extracted at 90 min; 80 nM SOS
Procedure, shortened: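 Exchange onto fluorescent GTP-DY-647P1 (150 nM final) catalysed by 80 nM SOS1cat was followed by Tb-anti-GST HTRF at RT for up to 90 min, after 1 h compound pre-incubation with 0.25 nM GST-tagged KRAS-G12V (2-169), pH 7.3. DMSO = 0%, no-SOS blank = 100%; 4-parameter IC50 taken at 90 min.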

[4] = target: GST-tagged KRAS-G12D (2-169) (Homo sapiens, UniProt P01116, G12D); assay: Nucleotide exchange assay (NEA), SOS-mediated, HTRF, KRAS G12D; type: biochemical; settings: Table 4; IC50 extracted at 30 min; 20 nM SOScat; read-out: NEA G12D IC50
Procedure, shortened: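 SOS1cat-driven loading of fluorescent GTP-DY-647P1 (150 nM) onto GST-KRAS-G12D (2-169, 0.25 nM) read by time-resolved FRET; SOScat 20 nM, compound preincubated with KRAS 1 h at RT. Signal blanked to no-SOS reactions, normalized to DMSO; IC50 fitted from the 30-min read.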

GST-tagged KRAS-G12V (2-169), sequence (P01116 2-169 isoform P01116-2 G12V): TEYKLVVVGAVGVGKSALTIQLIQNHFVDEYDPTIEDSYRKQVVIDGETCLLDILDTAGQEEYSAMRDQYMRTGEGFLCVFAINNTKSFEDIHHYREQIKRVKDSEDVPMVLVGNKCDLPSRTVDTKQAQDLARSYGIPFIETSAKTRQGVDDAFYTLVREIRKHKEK
GST-tagged KRAS-G12D (2-169), sequence (P01116 2-169 isoform P01116-2 G12D): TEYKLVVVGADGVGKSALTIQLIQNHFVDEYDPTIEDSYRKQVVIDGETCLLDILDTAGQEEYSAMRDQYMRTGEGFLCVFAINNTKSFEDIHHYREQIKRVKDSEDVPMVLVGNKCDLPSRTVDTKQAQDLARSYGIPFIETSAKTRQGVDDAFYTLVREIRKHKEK

SMILES	IC50 [1] [nM]	IC50 [2] [nM]	IC50 [3] [nM]	IC50 [4] [nM]
N#Cc1c(N)sc2c1C1(CN(c3nc(OC[C@@]45CCCN4C[C@H](F)C5)nc(N4CCOCC(C#N)C4)n3)C1)SC2 (stereo partly drawn) [Compound 146, 4-[4-(2-amino-3-cyano-spiro[6H-thieno[3,4-b]thiophene-4,3′-azetidine]-1′-yl)-6-[[(2R,8S)-2-fluoro-1,2,3,5,6,7-hexahydropyrrolizin-8-yl]methoxy]-1,3,5-triazin-2-yl]-1,4-oxazepane-6-carbonitrile]	100 to 1000	100 to 1000	< 10	10 to 100
N#CCC1C=C(F)CN(c2nc(OC[C@@]34CCCN3C[C@H](F)C4)nc(N3CC4(CCc5sc(N)c(C#N)c54)C3)n2)C1 (stereo partly drawn) [Compound 25, 2-amino-1′-[4-[3-(cyanomethyl)-5-fluoro-3,6-dihydro-2H-pyridin-1-yl]-6-[[(2R,8S)-2-fluoro-1,2,3,5,6,7-hexahydropyrrolizin-8-yl]methoxy]-1,3,5-triazin-2-yl]spiro[5,6-dihydrocyclopenta[b]thiophene-4,3′-azetidine]-3-carbonitrile]	100 to 1000	–	10 to 100	10 to 100
C[C@@H]1[C@H](CO)CCCN1c1nc(OC[C@@]23CCCN2C[C@H](F)C3)nc(N2CC3(CCc4sc(N)c(C#N)c43)C2)n1 (racemic) [Compound 24, 2-amino-1′-[4-[[(2R,8S)-2-fluoro-1,2,3,5,6,7-hexahydropyrrolizin-8-yl]methoxy]-6-[rac-(2R,3R)-3-(hydroxymethyl)-2-methyl-1-piperidyl]-1,3,5-triazin-2-yl]spiro[5,6-dihydrocyclopenta[b]thiophene-4,3′-azetidine]-3-carbonitrile]	1000 to 20000	–	100 to 1000	100 to 1000
CN(C)CC1(COc2nc(N3CC4(CCc5sc(N)c(C#N)c54)C3)nc(N3CCC[C@@](C)(O)C3)n2)CC1(F)F (stereo partly drawn) [Compound 34, 2-amino-1′-[4-[[1-[(dimethylamino)methyl]-2,2-difluoro-cyclopropyl]methoxy]-6-[(3R)-3-hydroxy-3-methyl-1-piperidyl]-1,3,5-triazin-2-yl]spiro[5,6-dihydrocyclopenta[b]thiophene-4,3′-azetidine]-3-carbonitrile]	10 to 100	–	< 10	< 10
C[C@@]1(O)CCCN(c2nc(OC[C@@]34CCCN3C[C@H](F)C4)nc(N3CC4(CCCc5sc(N)c(C#N)c54)C3)n2)C1 [Compound 30, 2-amino-1′-[4-[[(2R,8S)-2-fluoro-1,2,3,5,6,7-hexahydropyrrolizin-8-yl]methoxy]-6-[(3R)-3-hydroxy-3-methyl-1-piperidyl]-1,3,5-triazin-2-yl]spiro[6,7-dihydro-5H-benzothiophene-4,3′-azetidine]-3-carbonitrile]	100 to 1000	–	10 to 100	10 to 100
N#Cc1c(N)sc2c1C1(CN(c3nc(OCC4(CN5CCOCC5)CC4)nc(N4C[C@@H]5CC[C@@H](N5)C4CO)n3)C1)SC2 (stereo partly drawn) [Compound 188, 2′-amino-1-(4-((1R,5S)-2-(hydroxymethyl)-3,8-diazabicyclo[3.2.1]octan-3-yl)-6-((1-(morpholinomethyl)cyclopropyl)methoxy)-1,3,5-triazin-2-yl)-6′H-spiro[azetidine-3,4′-thieno[3,4-b]thiophene]-3′-carbonitrile]	< 10	–	10 to 100	< 10
N#Cc1c(N)sc2c1C1(CC2)CN(c2nc(OC[C@@]34CCCN3C[C@H](F)C4)nc(N3CCc4noc(N)c4C3)n2)C1 [Compound 31, 2-amino-1′-[4-(3-amino-6,7-dihydro-4H-isoxazolo[4,3-c]pyridin-5-yl)-6-[[(2R,8S)-2-fluoro-1,2,3,5,6,7-hexahydropyrrolizin-8-yl]methoxy]-1,3,5-triazin-2-yl]spiro[5,6-dihydrocyclopenta[b]thiophene-4,3′-azetidine]-3-carbonitrile]	100 to 1000	–	100 to 1000	10 to 100
